Active and inactive are the calls of the source. The rule behind the calls is not given here.

Results on five molecules are retold here after ChEMBL document CHEMBL3046942, “Synthesis and biological activity of new cycloalkylthiophene-Schiff bases and their Cr(III) and Zn(II) complexes” (2010).

For test [1], the system named is Shigella boydii. The test can be described thus: Antibacterial activity against Shigella boydii type 6 RSKK-96043 at 30 ug after 24 hr by agar well diffusion method. Format: functional. The following applies: type 6 RSKK-96043, 24 h, read-out: DIZ. Background: In agar diffusion tests the substance spreads into inoculated agar from a disc or well.
The test system of test [2] is Shigella boydii. The test can be described thus: Antibacterial activity against Shigella boydii type 16 at 30 ug after 24 hr by agar well diffusion method. It is filed as functional. The following applies: type 16, 24 h, read-out: DIZ.
Test [3] relates to Shigella boydii. The test can be described thus: Antibacterial activity against Shigella boydii type 11 at 30 ug after 24 hr by agar well diffusion method. Format: functional. The following applies: type 11, 24 h, read-out: DIZ.
Test [4] relates to Salmonella typhimurium. The test can be described thus: Antibacterial activity against Salmonella enterica subsp. enterica serovar Typhi H NCTC 901.8394 at 30 ug after 24 hr by agar well diffusion method. It is filed as functional. The following applies: H NCTC 901.8394, 24 h, read-out: DIZ.
Test [5] relates to Proteus. The test can be described thus: Antibacterial activity against Proteus OX2 Wrah at 30 ug after 24 hr by agar well diffusion method. Format: functional. The following applies: read-out: DIZ.
Test [6] deals with Pseudomonas putida. The test can be described thus: Antibacterial activity against Pseudomonas putida at 30 ug after 24 hr by agar well diffusion method. The following applies: read-out: DIZ. Format: functional.
Test [7] relates to Escherichia coli. The test can be described thus: Antibacterial activity against Escherichia coli ATCC 1280 at 30 ug after 24 hr by agar well diffusion method. It is filed as functional. The following applies: ATCC 1280, 24 h, read-out: DIZ.
Test [8] concerns Listeria monocytogenes. The test can be described thus: Antibacterial activity against Listeria monocytogenes ATCC 19115 at 30 ug after 24 hr by agar well diffusion method. It is filed as functional. The following applies: ATCC 19115, 24 h, read-out: DIZ.
Test [9] deals with Staphylococcus aureus. The test can be described thus: Antibacterial activity against Staphylococcus aureus ATCC 25923 at 30 ug after 24 hr by agar well diffusion method. It is filed as functional. The following applies: ATCC 25923, 24 h, read-out: DIZ.
For test [10], the system named is Candida albicans. The test can be described thus: Antifungal activity against Candida albicans Y-1200-NIH at 0.25 ug/ml after 24 hr by agar well diffusion method. Format: functional. The following applies: read-out: DIZ.
Test [11] has as its system Brucella abortus. The test can be described thus: Antibacterial activity against Brucella abortus RSKK-03026 at 0.25 ug/ml after 24 hr by agar well diffusion method. Format: functional.
The subject of test [12] is Shigella boydii. The test can be described thus: Antibacterial activity against Shigella boydii type 6 RSKK-96043 at 0.25 ug/ml after 24 hr by agar well diffusion method. Format: functional. The following applies: type 6 RSKK-96043, 24 h, read-out: DIZ.
For test [13], the system named is Shigella boydii. The test can be described thus: Antibacterial activity against Shigella boydii type 16 at 0.25 ug/ml after 24 hr by agar well diffusion method. It is filed as functional. The following applies: type 16, 24 h, read-out: DIZ.
Test [14] concerns Shigella boydii. The test can be described thus: Antibacterial activity against Shigella boydii type 11 at 0.25 ug/ml after 24 hr by agar well diffusion method. The following applies: type 11, 24 h, read-out: DIZ. Format: functional.
For test [15], the system named is Salmonella typhimurium. The test can be described thus: Antibacterial activity against Salmonella enterica subsp. enterica serovar Typhi H NCTC 901.8394 at 0.25 ug/ml after 24 hr by agar well diffusion method. It is filed as functional. The following applies: H NCTC 901.8394, 24 h, read-out: DIZ.
In test [16] the test system is Proteus. The test can be described thus: Antibacterial activity against Proteus OX2 Wrah at 0.25 ug/ml after 24 hr by agar well diffusion method. It is filed as functional. The following applies: read-out: DIZ.
For test [17], the system named is Escherichia coli. The test can be described thus: Antibacterial activity against Escherichia coli ATCC 1280 at 0.25 ug/ml after 24 hr by agar well diffusion method. It is filed as functional. The following applies: ATCC 1280, 24 h, read-out: DIZ.
Test [18] has as its system Pseudomonas putida. The test can be described thus: Antibacterial activity against Pseudomonas putida at 0.25 ug/ml after 24 hr by agar well diffusion method. Format: functional. The following applies: read-out: DIZ.
For test [19], the system named is Listeria monocytogenes. The test can be described thus: Antibacterial activity against Listeria monocytogenes ATCC 19115 at 0.25 ug/ml after 24 hr by agar well diffusion method. It is filed as functional. The following applies: ATCC 19115, 24 h, read-out: DIZ.
Test [20] deals with Staphylococcus aureus. The test can be described thus: Antibacterial activity against Staphylococcus aureus ATCC 25923 at 0.25 ug/ml after 24 hr by agar well diffusion method. It is filed as functional. The following applies: ATCC 25923, 24 h, read-out: DIZ.
Test [21] deals with Pseudomonas putida. The test can be described thus: Antibacterial activity against Pseudomonas putida at 5 ug after 24 hr by agar well diffusion method. The following applies: read-out: DIZ. Format: functional.
Test [22] concerns Listeria monocytogenes. The test can be described thus: Antibacterial activity against Listeria monocytogenes ATCC 19115 at 5 ug after 24 hr by agar well diffusion method. The following applies: ATCC 19115, 24 h, read-out: DIZ. Format: functional.
The test system of test [23] is Shigella boydii. The test can be described thus: Antibacterial activity against Shigella boydii type 6 RSKK-96043 at 5 ug after 24 hr by agar well diffusion method. It is filed as functional. The following applies: type 6 RSKK-96043, 24 h, read-out: DIZ.
Test [24] has as its system Shigella boydii. The test can be described thus: Antibacterial activity against Shigella boydii type 16 at 5 ug after 24 hr by agar well diffusion method. Format: functional. The following applies: type 16, 24 h, read-out: DIZ.
For test [25], the system named is Shigella boydii. The test can be described thus: Antibacterial activity against Shigella boydii type 11 at 5 ug after 24 hr by agar well diffusion method. The following applies: type 11, 24 h, read-out: DIZ. Format: functional.
For test [26], the system named is Salmonella typhimurium. The test can be described thus: Antibacterial activity against Salmonella enterica subsp. enterica serovar Typhi H NCTC 901.8394 at 5 ug after 24 hr by agar well diffusion method. It is filed as functional. The following applies: H NCTC 901.8394, 24 h, read-out: DIZ.
Test [27] concerns Proteus. The test can be described thus: Antibacterial activity against Proteus OX2 Wrah at 5 ug after 24 hr by agar well diffusion method. Format: functional. The following applies: read-out: DIZ.
The subject of test [28] is Staphylococcus aureus. The test can be described thus: microbe, parasite or virus in culture. The following applies: ATCC 25923, 24 h, read-out: DIZ.

Turning to `CC1(C)S[C@@H]2[C@H](NC(=O)[C@H](N)c3ccc(O)cc3)C(=O)N2[C@H]1C(=O)O` [AMOXICILLIN], the zone of inhibition at 30 µg/disc in [1] was 19 mm; in test [2], 14 mm; in test [3], 24 mm; in test [4], 19 mm; in test [5], 17 mm; in test [6], 15 mm. Moreover, the results for the zone of inhibition at 30 µg/disc in [7], in test [8] and in [9] were 14 mm, 22 mm and 30 mm, respectively.
As for `O=C(N[C@H](CO)[C@H](O)c1ccc([N+](=O)[O-])cc1)C(Cl)Cl` [CHLORAMPHENICOL], the zone of inhibition at 30 µg/disc in [1] is 18 mm; in test [2] it was 22 mm; in test [3], 18 mm; in [4], 19 mm; in [5], 27 mm; in test [6] it was 12 mm. Further, the zone of inhibition at 30 µg/disc in test [7] is 30 mm; in [8] it was 18 mm; in [9], 25 mm.
Take `CCOC(=O)c1c(/N=C/c2c(O)ccc3ccccc23)sc2c1CCC2`: the zone of inhibition at 0.25 µg/mL in test [10] was found to be 14 mm; in [12], 6 mm; in [13] it was 7 mm; in test [14] it was 8 mm; in test [15] it was 6 mm; in test [16], 5 mm. The zone of inhibition at 0.25 µg/mL came out at 6 mm in [17], 8 mm in test [18], 7 mm in test [19] and 14 mm in test [20]. For the same molecule, in test [11], the “diameter of the inhibition zone (DIZ)” value is “inactive”.
On to `NC[C@H]1O[C@H](O[C@H]2[C@H](O)[C@@H](O[C@H]3O[C@H](CO)[C@@H](O)[C@H](N)[C@H]3O)[C@H](N)C[C@@H]2N)[C@H](O)[C@@H](O)[C@@H]1O` [KANAMYCIN], for which the zone of inhibition at 30 µg/disc in test [1] was found to be 15 mm; in test [2], 16 mm; in test [3], 14 mm; in test [4] it was 20 mm; in test [5], 25 mm; in test [6], 14 mm. For the same molecule, the zone of inhibition at 30 µg/disc in test [7] amounted to 25 mm; in test [8], 15 mm; in test [9], 25 mm.
As for `O=C(O)c1cn(C2CC2)c2cc(N3CCNCC3)c(F)cc2c1=O` [CIPROFLOXACIN], the zone of inhibition at 5 µg/disc in test [21] stood at 20 mm; in [22], 17 mm; in [23], 30 mm; in test [24], 20 mm; in test [25], 25 mm; in [26] it was 23 mm. For the same molecule, the zone of inhibition at 5 µg/disc was determined as 27 mm in test [27] and 25 mm in [28].
